# Source: patent US7266458B2, “BioMAP analysis” (Bioseek, Inc., priority 2000, dated 2007)
# B1: IFN-γ: cytokine added to HUVEC (protein)
# chain: QDPYVKEAENLKKYFNAGHSDVADNGTLFLGILKNWKEESDRKIMQSQIVSFYFKLFKNFKDDQSIQKSVETIKEDMNVKFFNSNKKKRDDFEKLTNYSVTDLNVQRKAIHELIQVMAELSPAAKTGKRKRSQMLFRGRRASQ
# What was measured:
# [1] = tested on: human umbilical vein endothelial cells (HUVEC); assay: Multiplex assay combinations for distinguishing mechanism of action (single cytokines, activating anti-p55); assay type: cell-based; conditions: 20 μM AA861, 10 μM NHGA
# Protocol: Confluent cultures of HUVEC cells are treated with TNF-α (5 ng/ml), IFN-γ (100 ng/ml), IL-1 (20 ng/ml), the combination of TNF-α+IFN-γ+IL-1, or media (no cytokine) in the presence or absence of neutralizing anti-TNF-α, 20 μM AA861 or 10 μM NHGA. After 24 hours, cultures are washed and evaluated for the cell surface expression of ICAM-1 (1), VCAM-1 (2), E-selectin (3), IL-8 (4), and MIG (5) by cell-based ELISA performed as described in Example 1. A graphical representation of the resulting biomaps derived from the data is shown in FIG. 5, coded as described above.
# Confirmation is performed by evaluating the test agent in assay combinations that include both physiologic and alternative pathway activators. Confluent cultures of HUVEC cells are treated with TNF-α (5 ng/ml), IL-1 (20 ng/ml), an activating antibody against the TNF-α receptor p55, or media. After 24 hours, cultures are washed and evaluated for the cell surface expression of ICAM-1 (1), VCAM-1 (2), E-selectin (3), CD31 (4), and MIG (5) by cell-based ELISA performed as described above. A graphical representation of the resulting biomap, prepared from the data is shown in FIG. 6, coded as described above.
# [2] = tested on: human umbilical vein endothelial cells (HUVEC); assay: Optimized inflammatory assay combination (IL-1+TNF-α+IFN-γ) with added agents, cell-based ELISA biomap; conditions: for biomap in the optimized assay combination: 10 μM NHGA, 200 YM PDTC, 9 μM PD098059, 125-500 μM ibuprofen, TNF-α+IFN-γ+IL-1, 24 hours; for reference biomaps compared by pattern similarity and cluster analysis: hierarchical clustering, FIG. 4C
# Protocol: After 24 hours, cultures are washed and evaluated for the cell surface expression of ICAM-1 (1), VCAM-1 (2), E-selectin (3), IL-8 (4), CD31 (5), HLA-DR (6) and MIG (7) by cell-based ELISA performed as described above.
# Confluent cultures of HUVEC cells are treated with TNF-α (5 ng/ml)+IFN-γ (100 ng/ml)+IL-1 (1 ng/ml) in the presence or absence of agents or buffers at the concentrations indicated in Table 1. Compounds are obtained from commercial sources and prepared in a suitable buffer (water, base media, DMSO, methanol or ethanol). After 24 hours, cultures are washed and evaluated for the cell surface expression of ICAM-1 (1), VCAM-1 (2), E-selectin (3), IL-8 (4), CD31 (5), HLA-DR (6) and MIG (7) by cell-based ELISA performed as described above. A color-coded representation of the resulting biomaps developed from the data is shown. […] Control assay combinations for each agent include an appropriate concentration of the diluent buffer.
# Readout patterns are analyzed by hierarchical clustering techniques, and are visualized as a tree diagram in which a) each terminal branch point represents the readout pattern from one assay combination in one experiment; b) the length of the vertical distance from the upper horizontal line (no change and control patterns) to the termini are related to the extent of difference in the readout pattern from the control environment pattern; and c) the distance along, the branches from one terminal pattern value to another reflects the extent of difference between them. Similar patterns are thus clustered together.
# [3] = tested on: human umbilical vein endothelial cells (HUVEC); assay type: cell-based; parameters: key: Active BioMap profiles (indicated as “yes”) were significantly different from the profile obtained with the control vector; BioMAP profiles that were not different from control vector are indicated as “—”; conditions: NFkB Pathway genes; TNF-alpha, IL-1, IFN-gamma individually or in combination; vs control vector, p < 0.05, n = 3
# Protocol: High-titer retrovirus preparations are generated by transient transfection of vector construct into a retroviral packaging cell line (AmphoPack-293;Clontech). […] Expression of BioMAP markers (ICAM-1, VCAM, etc.) is measured by a cell-based ELISA technique (Melrose, 1998, supra) that has been optimized such that changes in expression levels of >20% can be routinely detected as statistically significant effects (p<0.05). […] Cells were stained with the NGFr specific monoclonal antibody (Chemicon).
# In the lower two panels IFN-gamma was added to all samples. Average values (ELISA OD) from triplicate samples are shown, error bars indicate standard deviation. Control is HUVEC transduced with the “empty” vector, which only encodes NGFr marker. Data are from a representative experiment. Results were reproduced in at least two experiments with HUVEC cells from different donors.
# Gene over-expression vectors were generated for many members of the NFκB and Jak/STAT pathways, and measured BioMAP profiles in transduced HUVEC cells by a cell-based ELISA technique (Melrose, 1998, supra), in the presence of TNF-alpha, IL-1, IFN-gamma, individually or in combination. […] Average values (ELISA OD) from triplicate samples are shown. Control (_-_) is HUVEC transduced with the “empty” retroviral vector, which only encodes NGFr marker. Data shown are from a representative experiment.
# [4] = tested on: human umbilical vein endothelial cells (HUVEC); assay: Morpholino antisense in HUVEC, cell surface expression by flow cytometry; assay type: cell-based
# Description: Morpholino phosphorodiamidate (MF) antisense oligonucleotides are used. Other chemical classes of antisense oligonucleotides that can be substituted for morpholinos include but are not limited to phosphorotioate oligonucleotides, N3′-P5′ phosphoramidate oligonucleotides (NP), locked nucleic acid (LNA), 2′-O-methoxyethyl nucleic acid (MOE), 2′-fluoro-arabinonucleic acid (FANA), peptide nucleic acids (PNA) (reviewed in Toulme, Nature Biotech. 19:17, 2001); siRNA (Elbashir et al. (2000) Nature 411:494-498); ribozymes (Kawasaki et al. (2002) Nat. Biotech 20:376-380); standard antisense (Veres et al. (1998) J. Virol. 72:1894-1901). In the present example, antisense oligonucleotides for TNF-R1 (p55) (5′-[…]-3′)(SEQ ID NO:1), and the beta-globin control oligo (5′-[…]-3′)(SEQ ID NO:2) (Gene Tools Inc.) are used. The transfection mixture is prepared by mixing […] of 200 mM EPEI (Ethoxylated PolyEthylenlmine), vortexed, incubated at room temperature for 20 minutes, and then mixed with 3.5 ml of serum-free media to give a final 0.6 μM morpholino concentration.
# HUVEC cells are plated the day before in 24-well plates at 4-6×10e4 cells/well. Cells are washed once with serum-free media and incubated with 0.4 ml of the morpholino transfection mixture at 37° C. for 3 hours. Morpholino is removed, regular media ([…] Growth Media with 2% fetal calf serum, Clonetics) is added and cells allowed to recover overnight. The efficiency of loading of cells with morphino is monitored in cells incubated with a fluorescent morpholino, and is typically essentially 100 percent. HUVEC cells are then treated with either TNF-α (0.5 ng/ml), or IL-1 (1 ng/ml), or media only. After 4 hours, cells are harvested and evaluated for the cell surface expression of ICAM-1 (1), VCAM-1 (2), E-selectin (3), and CD31 (4) by flow cytometry. […] The TNF-R1 antisense specifically blocks induction of ICAM-1 and VCAM-1 by TNF-α, while it has no effect on induction of the same markers by the independent cell surface receptor for IL-1.
# [5] = tested on: human umbilical vein endothelial cells (HUVEC); assay: Apoptosis assay panel (ceramide, TNF-α) with LDH release and cell-based ELISA; conditions: factor added to endothelial cell cultures, vs basal conditions
# Description: A panel of assay combinations that reproduces aspects of the response of the endothelial cells to inflammatory processes and stimuli enhancing apoptosis is used.
# Retroviral vectors derived from the MSCV-based pMSCVneo vector (Clontech) are used to express genes in the cultured endothelial cells. […] Test genes are inserted downstream of the MSCV LTR, the marker gene is the enhanced green fluorescent protein (GFP) and the IRES is 600 bp fragment from EMCV virus (Jang, J. Virol. 63:1651, 1989). […] Retroviral vector plasmid DNA is transfected into AmphoPack-293 cells (Clontech) by modified calcium phosphate method according to manufacturer's protocol (MBS transfection kit, Stratagene). Cell supernatants are harvested 48 hours post-transfection, filtered to remove cell debris (0.45 pm) and transferred onto exponentially growing HUVEC cells. DEAE dextran (conc lopg/ml) is added to facilitate vector transduction. After a 5-8 hour incubation period viral supernatants are removed and cells cultured for an additional 40 hours. Gene transfer efficiency is determined by FACS, and is typically ≧80 percent. […] After 24 hours, transduced cells are evaluated for the surface expression ICAM-1 (1), VCAM-1 (2), and MIG (3) by cell-based ELISA for biomap analysis. For the expanded biomap, cell supernatants at 24 hours are collected and analyzed for the presence of LDH (4).
# [6] = tested on: human umbilical vein endothelial cells (HUVEC); assay: HUVEC treated with proinflammatory cytokines, readout parameters by cell-based ELISA; conditions: HUVEC cultured with cytokine(s) 24 hours, vs basal medium
# Protocol: Primary human umbilical vein endothelial cells (HUVEC) are used. […] 2×10^4 cells/ml are cultured to confluence in EGM-2 (Clonetics).
# After 24 hours, cultures are washed and evaluated for the presence of the parameters ICAM-1 (1), VCAM-1 (2), E-selectin (3), IL-8 (4), CD31 (5), HLA-DR (6) and MIG (7) by cell-based ELISA as described (Melrose, J. Immunol. 161:2457, 1998). For this, plates are blocked with 1% Blotto for 1 hr, and treated with primary antibodies (obtained from Pharmingen and Becton Dickinson) at 1 ng/ml for 2 hr. After washing, secondary peroxidase-conjugated anti-mouse IgG antibody (Promega) at 1:2500 is applied for 45 min. After washing, TMB substrate (Kierkegaard & Perry) is added and color developed. Development is stopped by addition of H2SO4 and the absorbance at 450 nm (subtracting the background absorbance at 600 nm) is read with a Molecular Dynamics plate reader. The relative expression levels of each parameter are indicated by the OD at 450 nm shown along the y-axis. The mean +/−SD from triplicate samples is shown.
# After 24 hours, cultures are washed and evaluated for the presence of the parameters ICAM-1 (1), VCAM-1 (2), E-selectin (3), IL-8 (4), CD31 (5), HLA-DR (6) and MIG (7) by cell-based ELISA performed as described above, and are reported as the OD at 450 nm. The mean +/−SD from triplicate samples are shown. * indicates p<0.05 comparing results obtained with the two separate conditions.
# [7] = 0.6 μM morpholino, IL-1 1 ng/ml, 4 hours
# [8] = 0.6 μM morpholino, TNF-α 0.5 ng/ml, 4 hours
molecule,measurement,setting,value
"CC(Cc1ccc(O)c(O)c1)C(C)Cc1ccc(O)c(O)c1 (stereo not drawn) [NHGA, nordihydroguaiaretic acid]",cytokine signaling pathways targeted in the panel,[1],target multiple cytokine signaling pathways
same,biomap in the optimized assay combination,[2],altered biomaps
same,reference biomaps compared by pattern similarity and cluster analysis,[2],have similar reference biomaps and cluster together
O=C(NC1=CC(=O)c2ccccc2C1=O)c1ccccc1 [PPM-18],reference biomaps compared by pattern similarity and cluster analysis,[2],have similar reference biomaps and cluster together
TNFA,BioMAP readout,[3],yes
C[C@]12C=CC(=O)C=C1CC[C@@H]1[C@@H]2[C@@H](O)C[C@@]2(C)[C@H]1CC[C@]2(O)C(=O)CO [prednisolone],reference biomaps compared by pattern similarity and cluster analysis,[2],related reference biomaps that are distinct from those of NFκB pathway inhibitors
"TNF-R1 antisense: morpholino antisense oligonucleotide for TNF-R1 (p55), 5′-AGGTCAGGCACGGTGGAGAGGC-3′ (SEQ ID NO:1) (all phosphorodiamidate morpholino (PMO))",biomap vs control oligo biomap upon treatment with TNF-α,[4],altered biomap
same,induction of ICAM-1 by IL-1,[4]; [7],no effect
same,induction of VCAM-1 by IL-1,[4]; [7],no effect
same,induction of ICAM-1 by TNF-α,[4]; [8],blocks
same,induction of VCAM-1 by TNF-α,[4]; [8],blocks
CC(C)Cc1ccc(C(C)C(=O)O)cc1 (stereo not drawn) [ibuprofen],biomap in the optimized assay combination,[2],visually different representations of biomaps
ceramide,cell damage as release of cytoplasmic lactate dehydrogenase into the supernatant,[5],enhanced
O=c1cc(-c2ccc(O)cc2)oc2cc(O)cc(O)c12 [apigenin],reference biomaps compared by pattern similarity and cluster analysis,[2],have similar reference biomaps and cluster together
"S=C(S)N1CCCC1 [PDTC, pyrrolidine dithiocarbamate]",biomap in the optimized assay combination,[2],altered biomaps
same,reference biomaps compared by pattern similarity and cluster analysis,[2],have similar reference biomaps and cluster together
COc1cccc(-c2cc(=O)c3ccccc3o2)c1N [PD098059],biomap in the optimized assay combination,[2],altered biomaps
same,reference biomaps compared by pattern similarity and cluster analysis,[2],remain in the same cluster
B1,ICAM-1 level,"[6]; TNF-α 5 ng/ml, IFN-γ 100 ng/ml, IL-1 1 ng/ml",increased
same,HLA-DR level,[6],increased
same,MIG level,[6],increased
